Data reported in patent US9695155B2, “Herbicidal substituted pyrimidinyloxy benzene compounds” (E. I. DU PONT DE NEMOURS AND COMPANY, priority 2013, dated 2017).

How the values were obtained:
johnsongrass = assay: Test C postemergence; type: in vivo, Sorghum halepense; conditions: for Plant response rating (0 to 100), Johnsongrass: 16 g ai/ha, 0 is no effect, 100 is complete control; for Johnsongrass plant response rating: 31 g ai/ha, 13 to 15 days; for Johnsongrass plant response rating / Plant response rating, Johnsongrass: scale 0 to 100 (0 no effect, 100 complete control)
Summary of the method: (§1)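 Whole-plant greenhouse test with surfactant-containing solvent formulation, applied preemergence to sown loam–sand pots or postemergence to 2–18 cm plants. Scored by eye 13 to 15 days on, 0–100 scale.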

barnyardgrass [1] = assay: Test C postemergence; type: in vivo, Echinochloa crus-galli; conditions: for Plant response rating (0 to 100), Barnyardgrass: 16 g ai/ha, 0 is no effect, 100 is complete control; for Barnyardgrass plant response rating: 31 g ai/ha, 13 to 15 days; for Barnyardgrass plant response rating / Plant response rating, Barnyardgrass: scale 0 to 100 (0 no effect, 100 complete control)
Summary of the method: as §1

morningglory [2] = assay: Test A preemergence; type: in vivo, Ipomoea spp.; conditions: for Morningglory plant response rating (0 to 100 scale): 125 g ai/ha; for Morningglory plant response rating: 500 g ai/ha, 0 to 100 scale where 0 is no effect and 100 is complete control
Summary of the method: (§2)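 Visual injury scored 0–100 (100 = complete control) against untreated controls about 10 days after treatment in a greenhouse. Test chemicals, formulated with surfactant in non-phytotoxic solvent, were sprayed on soil preemergence or on 2-10 cm, one- to two-leaf plants postemergence.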

oilseed rape = assay: Test C postemergence; type: in vivo, Brassica napus; conditions: for Plant response rating (0 to 100), Oilseed Rape: 16 g ai/ha, 0 is no effect, 100 is complete control; for Oilseed Rape plant response rating: 31 g ai/ha, 13 to 15 days; for Oilseed Rape plant response rating / Plant response rating, Oilseed Rape: scale 0 to 100 (0 no effect, 100 complete control)
Summary of the method: as §1

sedge, umbrella = assay: Test B flooded paddy test; type: in vivo, Cyperus difformis; conditions: Flood, 250 g ai/ha; 0 to 100 scale where 0 is no effect and 100 is complete control
Summary of the method: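 Flooded to 3 cm at the 2-leaf stage, pots received compound through the paddy water and were kept at that depth under greenhouse conditions. After 13–15 days, effect was rated by eye relative to controls, 0 = none and 100 = complete control.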

wheat [3] = assay: Test A preemergence; type: in vivo, Triticum aestivum; conditions: for Wheat plant response rating (0 to 100 scale): 125 g ai/ha; for Wheat plant response rating: 500 g ai/ha, 0 to 100 scale where 0 is no effect and 100 is complete control
Summary of the method: as §2

large (Lg) crabgrass = assay: Test C postemergence; type: in vivo, Digitaria sanguinalis; conditions: for Plant response rating (0 to 100), Crabgrass, Large: 16 g ai/ha, 0 is no effect, 100 is complete control; for Crabgrass, Large plant response rating: 31 g ai/ha, 13 to 15 days; for Crabgrass, Large plant response rating / Plant response rating, Crabgrass, Large: scale 0 to 100 (0 no effect, 100 complete control)
Summary of the method: as §1

kochia = assay: Test C postemergence; type: in vivo, Kochia scoparia; conditions: for Plant response rating (0 to 100), Kochia: 16 g ai/ha, 0 is no effect, 100 is complete control; for Kochia plant response rating: 31 g ai/ha, 13 to 15 days; for Kochia plant response rating / Plant response rating, Kochia: scale 0 to 100 (0 no effect, 100 complete control)
Summary of the method: as §1

blackgrass = assay: Test C postemergence; type: in vivo, Alopecurus myosuroides; conditions: for Plant response rating (0 to 100), Blackgrass: 16 g ai/ha, 0 is no effect, 100 is complete control; for Blackgrass plant response rating: 31 g ai/ha, 13 to 15 days; for Blackgrass plant response rating / Plant response rating, Blackgrass: scale 0 to 100 (0 no effect, 100 complete control)
Summary of the method: as §1

barnyardgrass [4] = assay: Test A preemergence; type: in vivo, Echinochloa crus-galli; conditions: 0 to 100 scale where 0 is no effect and 100 is complete control; for Plant response rating, Barnyardgrass: 125 g ai/ha; for Barnyardgrass plant response rating: 500 g ai/ha
Summary of the method: as §2

morningglory [5] = assay: Test C postemergence; type: in vivo, Ipomoea coccinea; conditions: for Plant response rating (0 to 100), Morningglory: 16 g ai/ha, 0 is no effect, 100 is complete control; for Morningglory plant response rating: 31 g ai/ha, 13 to 15 days; for Morningglory plant response rating / Plant response rating, Morningglory: scale 0 to 100 (0 no effect, 100 complete control)
Summary of the method: as §1

yellow nutsedge = assay: Test C postemergence; type: in vivo, Cyperus esculentus; conditions: for Plant response rating (0 to 100), Nutsedge, Yellow: 16 g ai/ha, 0 is no effect, 100 is complete control; for Nutsedge, Yellow plant response rating: 31 g ai/ha, 13 to 15 days; for Nutsedge, Yellow plant response rating / Plant response rating, Nutsedge, Yellow: scale 0 to 100 (0 no effect, 100 complete control)
Summary of the method: as §1

wheat [6] = assay: Test A postemergence; type: in vivo, Triticum aestivum; conditions: 0 to 100 scale where 0 is no effect and 100 is complete control; for Wheat plant response rating: 125 g ai/ha; for Plant response rating, Wheat: 500 g ai/ha
Summary of the method: as §2

corn = assay: Test A preemergence; type: in vivo, Zea mays; conditions: 0 to 100 scale where 0 is no effect and 100 is complete control; for Plant response rating, Corn: 125 g ai/ha; for Corn plant response rating: 500 g ai/ha
Summary of the method: as §2

morningglory [7] = assay: Test A postemergence; type: in vivo, Ipomoea spp.; conditions: 0 to 100 scale where 0 is no effect and 100 is complete control; for Morningglory plant response rating: 125 g ai/ha; for Plant response rating, Morningglory: 500 g ai/ha
Summary of the method: as §2

[8] = 125 g ai/ha, postemergence, visual rating

## FC(F)c1cccc(Oc2ncc(Br)cn2)c1-n1cc(C(F)(F)F)cn1 [Compound 163]
johnsongrass; postemergence
  Plant response rating (0 to 100), Johnsongrass: 5
johnsongrass; postemergence, visual rating
  Johnsongrass plant response rating: 5
johnsongrass; [8]
  Plant response rating, Johnsongrass: 10
johnsongrass; Postemergence, 62 g ai/ha
  Plant response rating, Johnsongrass: 5
Barnyardgrass [1]; postemergence
  Plant response rating (0 to 100), Barnyardgrass: 5
Barnyardgrass [1]; postemergence, visual rating
  Barnyardgrass plant response rating: 5
Barnyardgrass [1]; [8]
  Plant response rating, Barnyardgrass: 5
Barnyardgrass [1]; Postemergence, 62 g ai/ha
  Plant response rating, Barnyardgrass: 5
Morningglory [2]
  Morningglory plant response rating (0 to 100 scale): 0
  Morningglory plant response rating: 70
Oilseed rape; postemergence
  Plant response rating (0 to 100), Oilseed Rape: 45
Oilseed rape; postemergence, visual rating
  Oilseed Rape plant response rating: 30
Oilseed rape; [8]
  Plant response rating, Oilseed Rape: 80
Oilseed rape; Postemergence, 62 g ai/ha
  Plant response rating, Oilseed Rape: 60
sedge, umbrella
  Plant response rating, Sedge, Umbrella: 90
Wheat [3]
  Wheat plant response rating (0 to 100 scale): 0
  Wheat plant response rating: 10
Large (Lg) crabgrass; postemergence
  Plant response rating (0 to 100), Crabgrass, Large: 5
Large (Lg) crabgrass; postemergence, visual rating
  Crabgrass, Large plant response rating: 5
Large (Lg) crabgrass; [8]
  Plant response rating, Crabgrass, Large: 10
Large (Lg) crabgrass; Postemergence, 62 g ai/ha
  Plant response rating, Crabgrass, Large: 10
kochia; postemergence
  Plant response rating (0 to 100), Kochia: 90
kochia; postemergence, visual rating
  Kochia plant response rating: 90
kochia; [8]
  Plant response rating, Kochia: 100
kochia; Postemergence, 62 g ai/ha
  Plant response rating, Kochia: 100
blackgrass; postemergence
  Plant response rating (0 to 100), Blackgrass: 0
blackgrass; postemergence, visual rating
  Blackgrass plant response rating: 5
blackgrass; [8]
  Plant response rating, Blackgrass: 15
blackgrass; Postemergence, 62 g ai/ha
  Plant response rating, Blackgrass: 5
Barnyardgrass [4]
  Plant response rating, Barnyardgrass: 50
  Barnyardgrass plant response rating: 100
Morningglory [5]; postemergence
  Plant response rating (0 to 100), Morningglory: 20
Morningglory [5]; postemergence, visual rating
  Morningglory plant response rating: 50
Morningglory [5]; [8]
  Plant response rating, Morningglory: 90
Morningglory [5]; Postemergence, 62 g ai/ha
  Plant response rating, Morningglory: 65
Yellow nutsedge; postemergence
  Plant response rating (0 to 100), Nutsedge, Yellow: 5
Yellow nutsedge; postemergence, visual rating
  Nutsedge, Yellow plant response rating: 5
Yellow nutsedge; [8]
  Plant response rating, Nutsedge, Yellow: 5
Yellow nutsedge; Postemergence, 62 g ai/ha
  Plant response rating, Nutsedge, Yellow: 5
Wheat [6]
  Wheat plant response rating: 10
  Plant response rating, Wheat: 60
corn
  Plant response rating, Corn: 0
  Corn plant response rating: 10
Morningglory [7]
  Morningglory plant response rating: 90
  Plant response rating, Morningglory: 100

## Fc1cnc(Oc2cccc(C(F)F)c2-n2cc(C(F)(F)F)cn2)nc1 [Compound 164]
johnsongrass; postemergence
  Plant response rating (0 to 100), Johnsongrass: 0
johnsongrass; postemergence, visual rating
  Johnsongrass plant response rating: 0
johnsongrass; [8]
  Plant response rating, Johnsongrass: 10
johnsongrass; Postemergence, 62 g ai/ha
  Plant response rating, Johnsongrass: 5
Barnyardgrass [1]; postemergence
  Plant response rating (0 to 100), Barnyardgrass: 0
Barnyardgrass [1]; postemergence, visual rating
  Barnyardgrass plant response rating: 0
Barnyardgrass [1]; [8]
  Plant response rating, Barnyardgrass: 5
Barnyardgrass [1]; Postemergence, 62 g ai/ha
  Plant response rating, Barnyardgrass: 5
Morningglory [2]
  Morningglory plant response rating (0 to 100 scale): 80
  Morningglory plant response rating: 100
Oilseed rape; postemergence
  Plant response rating (0 to 100), Oilseed Rape: 10
Oilseed rape; postemergence, visual rating
  Oilseed Rape plant response rating: 10
Oilseed rape; [8]
  Plant response rating, Oilseed Rape: 60
Oilseed rape; Postemergence, 62 g ai/ha
  Plant response rating, Oilseed Rape: 55
sedge, umbrella
  Plant response rating, Sedge, Umbrella: 90
Wheat [3]
  Wheat plant response rating (0 to 100 scale): 20
  Wheat plant response rating: 90
Large (Lg) crabgrass; postemergence
  Plant response rating (0 to 100), Crabgrass, Large: 5
Large (Lg) crabgrass; postemergence, visual rating
  Crabgrass, Large plant response rating: 5
Large (Lg) crabgrass; [8]
  Plant response rating, Crabgrass, Large: 10
Large (Lg) crabgrass; Postemergence, 62 g ai/ha
  Plant response rating, Crabgrass, Large: 5
kochia; postemergence
  Plant response rating (0 to 100), Kochia: 80
kochia; postemergence, visual rating
  Kochia plant response rating: 90
kochia; [8]
  Plant response rating, Kochia: 95
kochia; Postemergence, 62 g ai/ha
  Plant response rating, Kochia: 90
blackgrass; postemergence
  Plant response rating (0 to 100), Blackgrass: 0
blackgrass; postemergence, visual rating
  Blackgrass plant response rating: 0
blackgrass; [8]
  Plant response rating, Blackgrass: 15
blackgrass; Postemergence, 62 g ai/ha
  Plant response rating, Blackgrass: 5
Barnyardgrass [4]
  Plant response rating, Barnyardgrass: 90
  Barnyardgrass plant response rating: 100
Morningglory [5]; postemergence
  Plant response rating (0 to 100), Morningglory: 35
Morningglory [5]; postemergence, visual rating
  Morningglory plant response rating: 35
Morningglory [5]; [8]
  Plant response rating, Morningglory: 80
Morningglory [5]; Postemergence, 62 g ai/ha
  Plant response rating, Morningglory: 55
Yellow nutsedge; postemergence
  Plant response rating (0 to 100), Nutsedge, Yellow: 5
Yellow nutsedge; postemergence, visual rating
  Nutsedge, Yellow plant response rating: 5
Yellow nutsedge; [8]
  Plant response rating, Nutsedge, Yellow: 5
Yellow nutsedge; Postemergence, 62 g ai/ha
  Plant response rating, Nutsedge, Yellow: 5
Wheat [6]
  Wheat plant response rating: 70
  Plant response rating, Wheat: 90
corn
  Plant response rating, Corn: 10
  Corn plant response rating: 60
Morningglory [7]
  Morningglory plant response rating: 80
  Plant response rating, Morningglory: 100
